Reference: patent US8815840B2, “Carbazole and carboline kinase inhibitors” (Bristol-Myers Squibb Company, priority 2008, dated 2014)

Target: JAK2 (Homo sapiens (Human), UniProt O60674)
Assay: JAK2 Tyrosine Kinase Assay
Type: biochemical
Conditions: ATP 30 μM; JAK2 1 nM; 60 min at room temperature
Description: JAK2 Tyrosine Kinase Assay
The assays were performed in V-bottom 384-well plates. […] The reaction was initiated by the combination of JAK2 with substrates and test compounds. The reaction was incubated at room temperature for 60 min. and terminated by adding 45 μl of 35 mM EDTA to each sample. The reaction mixture was analyzed on the Caliper LABCHIP® 3000 by electrophoretic separation of the fluorescent substrate and phosphorylated product. […] Compounds were dissolved at 10 mM in dimethylsulfoxide (DMSO) and evaluated at eleven concentrations, each in duplicate. IC50 values were derived by non-linear regression analysis

Chain of JAK2 (O60674 whole entry): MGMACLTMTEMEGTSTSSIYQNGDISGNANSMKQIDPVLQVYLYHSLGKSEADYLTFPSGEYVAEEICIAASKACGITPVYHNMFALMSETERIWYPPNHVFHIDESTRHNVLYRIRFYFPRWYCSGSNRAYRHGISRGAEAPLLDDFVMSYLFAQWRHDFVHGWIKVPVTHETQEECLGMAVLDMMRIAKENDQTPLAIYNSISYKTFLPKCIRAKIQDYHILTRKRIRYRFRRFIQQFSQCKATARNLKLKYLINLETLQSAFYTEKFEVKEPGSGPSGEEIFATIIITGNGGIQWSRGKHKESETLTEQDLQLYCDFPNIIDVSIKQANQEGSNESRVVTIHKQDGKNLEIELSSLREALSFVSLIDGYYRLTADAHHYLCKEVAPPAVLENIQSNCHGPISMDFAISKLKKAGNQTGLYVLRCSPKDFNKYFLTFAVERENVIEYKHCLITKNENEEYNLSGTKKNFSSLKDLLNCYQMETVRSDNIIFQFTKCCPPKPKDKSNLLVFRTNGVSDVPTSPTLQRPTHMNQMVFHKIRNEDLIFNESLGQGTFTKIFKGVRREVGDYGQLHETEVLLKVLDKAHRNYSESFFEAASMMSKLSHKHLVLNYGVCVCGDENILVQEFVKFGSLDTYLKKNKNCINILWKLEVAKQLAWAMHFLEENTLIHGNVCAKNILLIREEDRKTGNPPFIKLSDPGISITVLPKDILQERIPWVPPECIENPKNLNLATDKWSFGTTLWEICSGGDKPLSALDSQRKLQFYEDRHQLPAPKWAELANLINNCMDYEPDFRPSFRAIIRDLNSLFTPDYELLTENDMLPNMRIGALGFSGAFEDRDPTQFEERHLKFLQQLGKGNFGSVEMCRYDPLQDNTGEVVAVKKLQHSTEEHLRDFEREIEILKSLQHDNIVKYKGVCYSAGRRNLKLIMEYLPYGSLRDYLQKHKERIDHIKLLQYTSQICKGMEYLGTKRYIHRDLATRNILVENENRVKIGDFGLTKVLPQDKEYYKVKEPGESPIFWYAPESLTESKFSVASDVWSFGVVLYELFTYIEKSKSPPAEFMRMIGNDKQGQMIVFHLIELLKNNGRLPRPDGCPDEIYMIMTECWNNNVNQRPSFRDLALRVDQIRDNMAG

IC50: 0.108 µM
SMILES: NC(=O)c1cc(-c2cnc(N3CCOCC3)nc2)cc2c1[nH]c1cc(C(=O)N3CCOCC3)ccc12 [Example 579, 7-(4-morpholinylcarbonyl)-3-(2-(4-morpholinyl)-5-pyrimidinyl)-9H-carbazole-1-carboxamide]
